These results are taken from US10752584B2 (EMORY UNIVERSITY, priority 2016, dated 2020).

Holding throughout (format): cell-based
The subject of data set [1] is human PBM. The data set can be described thus: Cellular toxicity assay in human PBM cells. The following applies: read-out: Cytotoxicity. Summed up: (§1)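 IC50 for cytotoxicity is derived with the median effective method from concentration-response data. Controls: cycloheximide, solvent-treated untreated cells.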
Data set [2] can be described thus: Cellular toxicity assay in human PBM cells. The following applies: human, human PBM cells, read-out: Cytotoxicity. An outline of the steps: as §1
In data set [3] the test system is wild type HBV. As to the kind of experiment: Anti-HBV assay in AD-38 cell line. The following applies: Hepatitis B virus; AD-38 cells, HBV in culture supernatant; read-out: Anti-HBV activity EC50.
For data set [4], the system named is Vero. The data set can be described thus: Cellular toxicity assay in Vero cells. The following applies: read-out: Cytotoxicity. An outline of the steps: as §1
Data set [5] can be described thus: Cellular toxicity assay in Vero cells. The following applies: African green monkey, read-out: Cytotoxicity. An outline of the steps:
as §1

Data set [6] in a line: Cellular toxicity assay in HepG2 cells. The following applies: human, read-out: Cytotoxicity. An outline of the steps: as §1
Data set [7] has as its system HBV e antigen (HBeAg). As to the kind of experiment: HBeAg ELISA in HepAD38 cells (cccDNA-dependent marker). Here is the method:
Production of secreted HBeAg is predominantly cccDNA-dependent in HepAD38 cells and therefore can serve as a surrogate marker for cccDNA (Ladner, S. K., Otto, M. J., Barker, C. S., Zaifert, K., Wang, G. H., Guo, J. T., Seeger, C., King, R. W. Antimicrob Agents Chemother 1997, 41, 1715-1720; Zhou T, Guo H, Guo J T, Cuconati A, Mehta A, Block T M. Antiviral Res. 2006; 72 (2): 116-24.). The effect on the levels of cccDNA formation was assessed using a cell-based assay that measures HBV e antigen (HBeAg) as a cccDNA-dependent marker in the HepAD38 system. HepAD38 cells were seeded at 50,000 cells/well in collagen-coated 96-well plates with DMEM/F12 medium (Life Technologies) supplemented with 10% heat-inactivated fetal bovine serum. Cells were treated with 0.3 μg/ml tetracycline as needed. Test compounds and controls were added to cells to a final concentration of 10 μM or in a dose response manner ranging from 0.001 to 10 μM. Medium and test compounds were replenished every 5 days in culture. Supernatants were harvested at day-14, clarified by centrifugation at 5000 rpm for 5 min, and stored at −70° C. until use. ELISA—Culture medium was diluted 1:15 in DMEM/F12 and the levels of HBeAg secreted in the culture medium were measured by using HBeAg ELISA kit (BioChain Institute Inc. Hayward, Calif.) according to the manufacturer's protocol. The concentration of compound that reduced levels of secreted HBeAg by 50% (EC50) was determined by linear regression.
For orientation: An ELISA detects its analyte on a solid surface through an enzyme-linked reagent.

One may read the EC50 as the concentration that produces a half-maximal response. For `O=C(Nc1ccc(F)c(F)c1)c1cc(S(=O)(=O)NCc2cn(C3CC3)nn2)ccc1F` [Compound 13, 5-(N-((1-Cyclopropyl-1H-1,2,3-triazol-4-yl)methyl)sulfamoyl)-N-(3,4-difluorophenyl)-2-fluorobenzamide], the CC50 in data set [1] was 64.8 µM; in data set [2] it was above 100 µM; in data set [4], 66 µM; in data set [5], 55.6 µM; in data set [6], above 100 µM. Moreover, the half-maximal effective concentration (EC50) in data set [3] is 0.1 to 0.9 µM; in data set [7] (Hepatitis B virus, HePAD38, 336 h, read-out: Anti-HBeAg activity EC50) it was below 10 µM. Further, the “Anti-HBeAg activity, percentage in brackets under EC50” value in data set [7] (HepAD38 cells, day 14, concentration not printed in the table (method: 10 μM)) is reported as “(86%)”.
